# From patent US12344597B2, “Alkoxy-substituted pyridinyl derivatives as LPA1 receptor antagonists and their use in the treatment of fibrosis” (IDORSIA PHARMACEUTICALS LTD, priority 2018, dated 2025)
# Where a name gives a salt, the structure may show the parent alone.
# Molecular target: human LPA1 receptor (Homo sapiens (Human), UniProt Q92633)
# Assay: Beta-arrestin recruitment assay to determine IC50 values for human LPAR1
# Format: cell-based
# Settings: antagonist mode, Tango EDG2-bla U2OS cells, LPA 18:1 500 nM final
# Summary of the method: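 Antagonist IC50 = concentration giving 50% inhibition of maximal LPA response. Read-out is beta-lactamase reporter activity after arrestin-protease recruitment in U2OS cells bearing LPA1-TEV-Gal4-VP16 construct; cells pre-incubated 20 h, 37 °C, 5% CO2.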
# Sequence of human LPA1 receptor (Q92633 whole entry): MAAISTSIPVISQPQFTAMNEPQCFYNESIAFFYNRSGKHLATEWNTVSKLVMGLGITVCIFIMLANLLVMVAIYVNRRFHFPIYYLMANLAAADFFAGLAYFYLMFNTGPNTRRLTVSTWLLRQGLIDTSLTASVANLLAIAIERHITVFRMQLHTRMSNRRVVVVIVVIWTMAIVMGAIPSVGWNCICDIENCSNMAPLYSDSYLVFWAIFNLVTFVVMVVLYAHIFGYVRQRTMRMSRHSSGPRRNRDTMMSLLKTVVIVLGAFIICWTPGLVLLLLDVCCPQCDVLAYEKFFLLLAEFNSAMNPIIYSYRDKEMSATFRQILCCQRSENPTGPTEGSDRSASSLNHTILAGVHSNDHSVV
row,Structure (SMILES),IC50
1,"Cc1ccc(NC(=O)C2(c3ccccc3C3CCOCC3)CN(C(=O)CC(C)(C)C(=O)O)C2)c(OC(F)F)n1 [Ex 31-6, 4-(3-((2-(difluoromethoxy)-6-methylpyridin-3-yl)carbamoyl)-3-(2-(tetrahydro-2H-pyran-4-yl)phenyl)azetidin-1-yl)-2,2-dimethyl-4-oxobutanoic acid]",185 nM
2,"Cc1ccc(NC(=O)C2(c3ccccc3C(C)C)CN(CCC(C)(C)C(=O)NS(C)(=O)=O)C2)c(OC(F)F)n1 [Ex 53, N-(2-(difluoromethoxy)-6-methylpyridin-3-yl)-1-(3,3-dimethyl-4-(methylsulfonamido)-4-oxobutyl)-3-(2-isopropylphenyl)azetidine-3-carboxamide]",17 nM
3,"Cc1ccc(NC(=O)C2(c3ccccc3C(C)C)CCN(C(=O)NCc3c[nH]cn3)CC2)c(OC(F)F)n1 [Ex 17-3, N1-((1H-imidazol-4-yl)methyl)-N4-(2-(difluoromethoxy)-6-methylpyridin-3-yl)-4-(2-isopropylphenyl)piperidine-1,4-carboxamide]",8 nM
4,"Cc1ccc(NC(=O)C2(c3ccccc3C(C)C)CN(C(=O)C[C@H]3COCCN3)C2)c(OC(F)F)n1 [Ex 12-44, (S)-N-(2-(difluoromethoxy)-6-methylpyridin-3-yl)-3-(2-isopropylphenyl)-1-(2-(morpholin-3-yl)acetyl)azetidine-3-carboxamide]",79 nM
5,"Cc1ccc(NC(=O)C2(c3ccccc3C(C)C)CN(C(=O)NC3(C(=O)O)CC3)C2)c(OC(F)F)n1 [Ex 17-11, 1-(3-((2-(difluoromethoxy)-6-methylpyridin-3-yl)carbamoyl)-3-(2-isopropylphenyl)azetidine-1-carboxamido)cyclopropane-1-carboxylic acid]",46 nM
6,"Cc1ccc(NC(=O)C2(c3ccccc3C3CCCC3)CN(C(=O)CC(C)(C)C(=O)O)C2)c(OC(F)F)n1 [Ex 31-3, 4-(3-(2-cyclopentylphenyl)-3-((2-(difluoromethoxy)-6-methylpyridin-3-yl)carbamoyl)azetidin-1-yl)-2,2-dimethyl-4-oxobutanoic acid]",5 nM
7,"Cc1ccc(NC(=O)C2(c3ccccc3C(C)C)CN(C(=O)OCC(=O)O)C2)c(OC(F)F)n1 [Ex 14-1, 2-((3-((2-(difluoromethoxy)-6-methylpyridin-3-yl)carbamoyl)-3-(2-isopropylphenyl)azetidine-1-carbonyl)oxy)acetic acid]",12 nM
8,"Cc1ccc(NC(=O)C2(c3ccccc3C(C)C)CN(S(=O)(=O)CCCCC(=O)O)C2)c(OC(F)F)n1 [Ex 13-19, 5-((3-((2-(difluoromethoxy)-6-methylpyridin-3-yl)carbamoyl)-3-(2-isopropylphenyl)azetidin-1-yl)sulfonyl)pentanoic acid]",55 nM
9,"Cc1ccc(NC(=O)C2(c3ccccc3C(C)C)CN(C(=O)CC3(C(=O)O)CCOC3)C2)c(OC(F)F)n1 (stereo not shown) [Ex 12-123, 3-(2-(3-((2-(difluoromethoxy)-6-methylpyridin-3-yl)carbamoyl)-3-(2-isopropylphenyl)azetidin-1-yl)-2-oxoethyl)tetrahydrofuran-3-carboxylic acid]",41 nM
10,"Cc1ccc(NC(=O)C2(c3ccccc3C(C)C)CN(C(=O)N[C@H](C(=O)O)C(C)C)C2)c(OC(F)F)n1 [Ex 17-7, (3-((2-(difluoromethoxy)-6-methylpyridin-3-yl)carbamoyl)-3-(2-isopropylphenyl)azetidine-1-carbonyl)-L-valine]",26 nM
11,"Cc1ccc(NC(=O)C2(c3ccccc3C(C)C)CN(Cc3n[nH]cc3C(=O)O)C2)c(OC(F)F)n1 [Ex 11-40, 3-((3-((2-(difluoromethoxy)-6-methylpyridin-3-yl)carbamoyl)-3-(2-isopropylphenyl)azetidin-1-yl)methyl)-1H-pyrazole-4-carboxylic acid]",270 nM
12,"CCOC(=O)COCCN1CC(C(=O)Nc2ccc(C)nc2OC(F)F)(c2ccccc2C(C)C)C1 [Ex 11-74, ethyl 2-(2-(3-((2-(difluoromethoxy)-6-methylpyridin-3-yl)carbamoyl)-3-(2-isopropylphenyl)azetidin-1-yl)ethoxy)acetate]",28 nM
13,"Cc1ccc(NC(=O)C2(c3ccccc3C(C)C)CN(S(=O)(=O)NCCO)C2)c(OC(F)F)n1 [Ex 15-3, N-(2-(difluoromethoxy)-6-methylpyridin-3-yl)-1-(N-(2-hydroxyethyl)sulfamoyl)-3-(2-isopropylphenyl)azetidine-3-carboxamide]",11 nM
14,"COC(=O)CCCCS(=O)(=O)N1CC(C(=O)Nc2ccc(C)nc2OC(F)F)(c2ccccc2C(C)C)C1 [Ex 13-18, methyl 5-((3-((2-(difluoromethoxy)-6-methylpyridin-3-yl)carbamoyl)-3-(2-isopropylphenyl)azetidin-1-yl)sulfonyl)pentanoate]",72 nM
15,"Cc1ccc(NC(=O)C2(c3ccccc3C(C)C)CN(c3ccnc(C(=O)O)n3)C2)c(OC(F)F)n1 [Ex 18-11, 4-(3-((2-(difluoromethoxy)-6-methylpyridin-3-yl)carbamoyl)-3-(2-isopropylphenyl)azetidin-1-yl)pyrimidine-2-carboxylic acid]",34 nM
16,"CCOC(=O)CNS(=O)(=O)N1CC(C(=O)Nc2ccc(C)nc2OC(F)F)(c2ccccc2C(C)C)C1 [Ex 15-1, Ethyl ((3-((2-(difluoromethoxy)-6-methylpyridin-3-yl)carbamoyl)-3-(2-isopropylphenyl)azetidin-1-yl)sulfonyl)glycinate]",5 nM

row,Structure (SMILES),IC50
1,"Cc1ccc(NC(=O)C2(c3ccccc3C(C)C)CN(C(=O)CC3(C(=O)O)COC3)C2)c(OC(F)F)n1 [Ex 12-98, 3-(2-(3-((2-(difluoromethoxy)-6-methylpyridin-3-yl)carbamoyl)-3-(2-isopropylphenyl)azetidin-1-yl)-2-oxoethyl)oxetane-3-carboxylic acid]",26 nM
2,"CC(C)c1ccccc1C1(C(=O)Nc2cccnc2OC(F)F)CN(c2ncc(C#N)cn2)C1 [Ex 18-25, 1-(5-cyanopyrimidin-2-yl)-N-(2-(difluoromethoxy)pyridin-3-yl)-3-(2-isopropylphenyl)azetidine-3-carboxamide]",5 nM
3,"COC(=O)c1ccc(CN2CC(C(=O)Nc3ccc(C)nc3OC(F)F)(c3ccccc3C(C)C)C2)[nH]1 [Ex 11-43, methyl 5-((3-((2-(difluoromethoxy)-6-methylpyridin-3-yl)carbamoyl)-3-(2-isopropylphenyl)azetidin-1-yl)methyl)-1H-pyrrole-2-carboxylate]",310 nM
4,"CCOC(=O)CN(C)CCN1CC(C(=O)Nc2ccc(C)nc2OC(F)F)(c2ccccc2C(C)C)C1 [Ex 11-81, Ethyl N-(2-(3-((2-(difluoromethoxy)-6-methylpyridin-3-yl)carbamoyl)-3-(2-isopropylphenyl)azetidin-1-yl)ethyl)-N-methylglycinate]",88 nM
5,"Cc1ccc(NC(=O)C2(c3ccccc3C(C)C)CCN(C(=O)Cn3nccn3)CC2)c(OC(F)F)n1 [Ex 12-22, 1-(2-(2H-1,2,3-triazol-2-yl)acetyl)-N-(2-(difluoromethoxy)-6-methylpyridin-3-yl)-4-(2-isopropylphenyl)piperidine-4-carboxamide]",7 nM
6,"Cc1ccc(NC(=O)C2(c3ccccc3C(C)C)CN(C(=O)CCOCCOCCO)C2)c(OC(F)F)n1 [Ex 12-51, N-(2-(difluoromethoxy)-6-methylpyridin-3-yl)-1-(3-(2-(2-hydroxyethoxy)ethoxy)propanoyl)-3-(2-isopropylphenyl)azetidine-3-carboxamide]",360 nM
7,"CC(C)c1ccccc1C1(C(=O)Nc2ncc(Br)cc2OC(F)F)CNC1 [Ex 73, N-(5-bromo-3-(difluoromethoxy)pyridin-2-yl)-3-(2-isopropylphenyl)azetidine-3-carboxamide]",10 nM
8,"COC(=O)CCC(=O)N1CC(C(=O)Nc2ccc(C)nc2OC)(c2ccccc2C(C)C)C1 [Ex 12-61, Methyl 4-(3-(2-isopropylphenyl)-3-((2-methoxy-6-methylpyridin-3-yl)carbamoyl)azetidin-1-yl)-4-oxobutanoate]",276 nM
9,"Cc1ccc(NC(=O)C2(c3ccccc3C(C)C)CN(Cc3ccno3)C2)c(OC(F)F)n1 [Ex 11-36, N-(2-(difluoromethoxy)-6-methylpyridin-3-yl)-3-(2-isopropylphenyl)-1-(isoxazol-5-ylmethyl)azetidine-3-carboxamide]",9 nM
10,"Cc1ccc(NC(=O)C2(c3ccccc3C(C)C)CN(C(=O)CCC(O)C(F)(F)F)C2)c(OC(F)F)n1 (stereo not shown) [Ex 12-120, N-(2-(difluoromethoxy)-6-methylpyridin-3-yl)-3-(2-isopropylphenyl)-1-(5,5,5-trifluoro-4-hydroxypentanoyl)azetidine-3-carboxamide]",11 nM
11,"COc1ccc(C(C)C)c(C2(C(=O)Nc3ccc(C)nc3OC(F)F)CNC2)c1 [Ex 38, N-(2-(difluoromethoxy)-6-methylpyridin-3-yl)-3-(2-isopropyl-5-methoxyphenyl)azetidine-3-carboxamide]",287 nM
12,"CC(C)c1ccccc1C1(C(=O)Nc2cccnc2OC(F)F)CNC1 [Ex 7, N-(2-(difluoromethoxy)pyridin-3-yl)-3-(2-isopropylphenyl)azetidine-3-carboxamide hydrochloride]",413 nM
13,"Cc1ccc(NC(=O)C2(c3ccccc3C3CCOCC3)CN(S(N)(=O)=O)C2)c(OC(F)F)n1 [Ex 30, N-(2-(difluoromethoxy)-6-methylpyridin-3-yl)-1-sulfamoyl-3-(2-(tetrahydro-2H-pyran-4-yl)phenyl)azetidine-3-carboxamide]",33 nM
14,"Cc1ccc(NC(=O)C2(c3ccccc3C(C)C)CN(C(=O)CCn3cnnc3)C2)c(OC(F)F)n1 [Ex 12-28, 1-(3-(4H-1,2,4-triazol-4-yl)propanoyl)-N-(2-(difluoromethoxy)-6-methylpyridin-3-yl)-3-(2-isopropylphenyl)azetidine-3-carboxamide]",222 nM
15,"Cc1ccc(NC(=O)C2(c3ccccc3C(C)C)CN(C(=O)CCC(=O)O)C2)c(OC(C)C)n1 [Ex 12-68, 4-(3-((2-isopropoxy-6-methylpyridin-3-yl)carbamoyl)-3-(2-isopropylphenyl)azetidin-1-yl)-4-oxobutanoic acid]",33 nM
